In ChEMBL document CHEMBL5442219 one finds inhibition data, which are given here for nine compounds.

The structures appear in SMILES notation.

For orientation: inhibition means the change of the read-out against control, counted positive when it falls.

Common to all, as to settings: Compound concentration 10 µM
For test [1], the target named is Sodium-dependent dopamine transporter (Homo sapiens) (UniProt Q01959).
Test [2] has as its target Sodium-dependent noradrenaline transporter (Homo sapiens) (UniProt P23975).
The target in test [3] is Muscarinic acetylcholine receptor M3 (Homo sapiens) (UniProt P20309).
Muscarinic acetylcholine receptor M3 (Homo sapiens), sequence (P20309 whole entry, looked up): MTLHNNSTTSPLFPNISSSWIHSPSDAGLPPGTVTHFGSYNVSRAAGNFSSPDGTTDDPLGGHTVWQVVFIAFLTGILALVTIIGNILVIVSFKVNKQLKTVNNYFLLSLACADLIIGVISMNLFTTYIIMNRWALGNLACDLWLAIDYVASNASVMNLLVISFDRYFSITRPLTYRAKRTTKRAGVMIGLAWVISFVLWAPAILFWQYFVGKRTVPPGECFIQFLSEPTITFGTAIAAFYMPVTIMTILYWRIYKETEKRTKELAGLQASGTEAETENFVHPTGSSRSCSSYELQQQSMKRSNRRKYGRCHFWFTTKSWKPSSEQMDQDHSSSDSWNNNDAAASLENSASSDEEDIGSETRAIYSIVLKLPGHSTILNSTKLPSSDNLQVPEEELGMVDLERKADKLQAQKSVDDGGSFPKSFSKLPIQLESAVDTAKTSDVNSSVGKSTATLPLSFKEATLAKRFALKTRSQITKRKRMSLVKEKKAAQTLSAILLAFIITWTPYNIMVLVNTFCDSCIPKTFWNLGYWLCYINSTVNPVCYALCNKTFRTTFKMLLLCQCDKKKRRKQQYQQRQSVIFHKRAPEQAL
In test [4] the target is Histamine H1 receptor (Homo sapiens) (UniProt P35367).
Histamine H1 receptor (Homo sapiens), sequence (P35367 whole entry): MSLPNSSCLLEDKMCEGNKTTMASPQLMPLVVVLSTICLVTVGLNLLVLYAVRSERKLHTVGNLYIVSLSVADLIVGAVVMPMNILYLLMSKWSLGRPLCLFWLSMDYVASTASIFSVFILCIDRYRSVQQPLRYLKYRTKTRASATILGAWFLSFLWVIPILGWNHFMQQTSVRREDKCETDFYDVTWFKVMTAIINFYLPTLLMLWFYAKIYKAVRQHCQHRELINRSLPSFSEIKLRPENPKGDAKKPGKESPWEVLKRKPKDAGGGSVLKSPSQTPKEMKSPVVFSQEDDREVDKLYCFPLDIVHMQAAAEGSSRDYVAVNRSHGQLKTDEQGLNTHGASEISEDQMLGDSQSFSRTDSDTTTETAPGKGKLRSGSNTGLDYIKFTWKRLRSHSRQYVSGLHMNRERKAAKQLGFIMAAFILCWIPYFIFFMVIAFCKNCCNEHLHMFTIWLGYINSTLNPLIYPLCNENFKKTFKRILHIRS
The target of test [5] is T1, Alpha-1D adrenergic receptor (Homo sapiens) (UniProt P25100).
T1 sequence (whole entry): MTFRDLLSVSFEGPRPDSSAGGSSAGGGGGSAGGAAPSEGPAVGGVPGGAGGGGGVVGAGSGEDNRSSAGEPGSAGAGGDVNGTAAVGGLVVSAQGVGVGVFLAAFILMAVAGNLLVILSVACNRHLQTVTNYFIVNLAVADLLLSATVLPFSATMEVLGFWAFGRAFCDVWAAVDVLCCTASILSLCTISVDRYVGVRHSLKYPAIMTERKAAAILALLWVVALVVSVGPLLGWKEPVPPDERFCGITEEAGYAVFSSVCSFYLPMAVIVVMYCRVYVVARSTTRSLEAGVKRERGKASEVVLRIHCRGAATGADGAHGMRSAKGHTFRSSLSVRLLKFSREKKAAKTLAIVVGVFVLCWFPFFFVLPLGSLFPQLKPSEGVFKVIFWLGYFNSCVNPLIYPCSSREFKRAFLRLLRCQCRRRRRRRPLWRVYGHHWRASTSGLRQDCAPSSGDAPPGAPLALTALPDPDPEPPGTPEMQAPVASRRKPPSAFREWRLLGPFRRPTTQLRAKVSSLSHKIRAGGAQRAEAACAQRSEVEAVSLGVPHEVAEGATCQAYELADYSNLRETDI

In test [6] the target is T2, Alpha-2B adrenergic receptor (Homo sapiens) (UniProt P18089).
T2 sequence (whole entry): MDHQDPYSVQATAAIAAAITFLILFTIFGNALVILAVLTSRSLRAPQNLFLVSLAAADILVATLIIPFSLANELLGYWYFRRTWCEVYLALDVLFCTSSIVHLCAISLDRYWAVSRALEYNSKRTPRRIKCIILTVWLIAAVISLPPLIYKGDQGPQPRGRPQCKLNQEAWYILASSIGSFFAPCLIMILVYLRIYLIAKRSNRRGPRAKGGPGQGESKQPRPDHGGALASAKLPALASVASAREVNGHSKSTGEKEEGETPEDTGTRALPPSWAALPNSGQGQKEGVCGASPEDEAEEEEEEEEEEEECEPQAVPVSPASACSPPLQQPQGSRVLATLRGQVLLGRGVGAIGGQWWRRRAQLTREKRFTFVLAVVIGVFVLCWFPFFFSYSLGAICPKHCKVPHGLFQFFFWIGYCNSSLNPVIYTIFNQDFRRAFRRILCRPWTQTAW

For test [7], the target named is T3, 5-hydroxytryptamine receptor 1A (Homo sapiens) (UniProt P08908).
T3 sequence (whole entry): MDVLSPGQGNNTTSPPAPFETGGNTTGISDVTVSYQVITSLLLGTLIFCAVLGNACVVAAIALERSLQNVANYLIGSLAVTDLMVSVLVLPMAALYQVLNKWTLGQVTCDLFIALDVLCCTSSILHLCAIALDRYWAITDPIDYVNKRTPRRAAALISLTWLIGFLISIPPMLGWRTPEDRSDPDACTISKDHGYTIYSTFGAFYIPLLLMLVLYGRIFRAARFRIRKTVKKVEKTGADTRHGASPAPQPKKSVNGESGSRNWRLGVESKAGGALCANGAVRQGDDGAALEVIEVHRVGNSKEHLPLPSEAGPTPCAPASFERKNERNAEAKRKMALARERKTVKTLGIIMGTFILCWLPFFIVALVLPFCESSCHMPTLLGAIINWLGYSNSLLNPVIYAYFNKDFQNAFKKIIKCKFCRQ

Test [8] deals with D(3) dopamine receptor (Homo sapiens) (UniProt P35462).
D(3) dopamine receptor (Homo sapiens), sequence (P35462 whole entry): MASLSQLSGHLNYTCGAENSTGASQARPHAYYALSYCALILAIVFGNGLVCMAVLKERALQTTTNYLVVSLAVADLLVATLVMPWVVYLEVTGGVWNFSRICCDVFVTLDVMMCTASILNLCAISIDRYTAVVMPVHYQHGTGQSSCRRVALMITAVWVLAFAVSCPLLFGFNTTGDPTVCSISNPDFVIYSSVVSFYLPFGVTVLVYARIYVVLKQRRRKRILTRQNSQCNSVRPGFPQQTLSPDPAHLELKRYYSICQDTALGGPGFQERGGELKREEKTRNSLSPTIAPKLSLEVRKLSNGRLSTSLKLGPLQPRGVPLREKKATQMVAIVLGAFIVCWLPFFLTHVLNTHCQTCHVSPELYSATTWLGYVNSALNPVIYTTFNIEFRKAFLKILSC
The target of test [9] is Histamine H4 receptor (Homo sapiens) (UniProt Q9H3N8).
Histamine H4 receptor (Homo sapiens), sequence (Q9H3N8 whole entry): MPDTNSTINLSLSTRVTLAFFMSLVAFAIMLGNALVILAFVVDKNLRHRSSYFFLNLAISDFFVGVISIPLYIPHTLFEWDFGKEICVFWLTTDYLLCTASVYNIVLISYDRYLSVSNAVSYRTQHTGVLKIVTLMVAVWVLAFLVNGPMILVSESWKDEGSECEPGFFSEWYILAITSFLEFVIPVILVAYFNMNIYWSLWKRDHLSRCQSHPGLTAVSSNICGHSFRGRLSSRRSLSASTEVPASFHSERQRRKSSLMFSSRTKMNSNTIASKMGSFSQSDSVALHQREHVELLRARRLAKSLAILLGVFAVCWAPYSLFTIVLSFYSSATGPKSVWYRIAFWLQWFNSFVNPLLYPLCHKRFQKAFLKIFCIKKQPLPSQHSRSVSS
Test [10] has as its target T4, D(4) dopamine receptor (Homo sapiens) (UniProt P21917).
T4 sequence (whole entry): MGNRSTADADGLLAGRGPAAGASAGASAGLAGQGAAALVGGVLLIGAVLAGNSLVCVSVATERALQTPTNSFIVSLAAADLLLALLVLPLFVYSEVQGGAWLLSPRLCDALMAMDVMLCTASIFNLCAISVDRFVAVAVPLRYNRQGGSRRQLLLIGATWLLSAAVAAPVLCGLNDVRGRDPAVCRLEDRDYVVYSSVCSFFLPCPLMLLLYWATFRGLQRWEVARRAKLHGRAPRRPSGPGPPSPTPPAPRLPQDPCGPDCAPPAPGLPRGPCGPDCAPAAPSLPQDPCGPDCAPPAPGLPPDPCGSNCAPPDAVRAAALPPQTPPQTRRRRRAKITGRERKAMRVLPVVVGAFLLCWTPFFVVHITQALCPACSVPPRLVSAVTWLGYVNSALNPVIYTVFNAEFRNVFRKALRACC

The target of test [11] is Beta-2 adrenergic receptor (Homo sapiens) (UniProt P07550).
Beta-2 adrenergic receptor (Homo sapiens), sequence (P07550 whole entry, looked up): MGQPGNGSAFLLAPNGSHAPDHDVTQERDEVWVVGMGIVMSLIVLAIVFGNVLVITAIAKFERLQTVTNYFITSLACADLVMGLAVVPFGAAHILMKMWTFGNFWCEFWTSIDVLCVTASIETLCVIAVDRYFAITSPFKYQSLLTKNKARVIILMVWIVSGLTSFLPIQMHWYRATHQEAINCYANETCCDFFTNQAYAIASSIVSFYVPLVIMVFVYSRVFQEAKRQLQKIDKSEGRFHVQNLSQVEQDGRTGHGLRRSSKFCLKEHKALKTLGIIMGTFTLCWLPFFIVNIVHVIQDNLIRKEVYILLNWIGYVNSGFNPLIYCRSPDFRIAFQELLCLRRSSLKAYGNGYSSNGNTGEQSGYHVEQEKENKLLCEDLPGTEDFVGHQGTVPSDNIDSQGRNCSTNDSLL
Test [12] deals with 5-hydroxytryptamine receptor 5A (Homo sapiens) (UniProt P47898).
5-hydroxytryptamine receptor 5A (Homo sapiens), sequence (P47898 whole entry): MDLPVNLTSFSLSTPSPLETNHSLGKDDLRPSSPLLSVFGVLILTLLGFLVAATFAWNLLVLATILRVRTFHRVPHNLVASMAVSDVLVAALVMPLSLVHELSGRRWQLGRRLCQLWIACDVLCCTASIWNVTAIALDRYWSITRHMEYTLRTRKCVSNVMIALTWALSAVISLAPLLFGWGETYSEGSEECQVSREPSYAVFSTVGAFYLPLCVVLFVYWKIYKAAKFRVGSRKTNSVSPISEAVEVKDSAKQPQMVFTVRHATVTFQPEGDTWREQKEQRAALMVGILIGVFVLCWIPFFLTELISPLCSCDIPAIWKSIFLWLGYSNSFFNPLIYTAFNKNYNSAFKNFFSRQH
In test [13] the target is 5-hydroxytryptamine receptor 2B (Homo sapiens) (UniProt P41595).
5-hydroxytryptamine receptor 2B (Homo sapiens), sequence (P41595 whole entry): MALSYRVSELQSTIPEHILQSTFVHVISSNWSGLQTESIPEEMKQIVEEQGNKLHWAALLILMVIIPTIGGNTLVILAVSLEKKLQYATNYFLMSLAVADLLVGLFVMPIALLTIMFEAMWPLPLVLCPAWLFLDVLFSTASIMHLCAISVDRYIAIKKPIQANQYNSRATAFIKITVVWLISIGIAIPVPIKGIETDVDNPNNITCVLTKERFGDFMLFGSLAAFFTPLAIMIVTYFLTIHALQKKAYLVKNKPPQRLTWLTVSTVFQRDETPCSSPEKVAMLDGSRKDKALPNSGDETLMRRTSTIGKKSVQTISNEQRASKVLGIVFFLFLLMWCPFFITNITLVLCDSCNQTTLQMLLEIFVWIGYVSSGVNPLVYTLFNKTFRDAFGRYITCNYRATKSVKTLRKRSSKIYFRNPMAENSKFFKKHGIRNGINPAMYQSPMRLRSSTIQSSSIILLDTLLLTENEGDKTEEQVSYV
In test [14] the target is T5, Muscarinic acetylcholine receptor M4 (Homo sapiens) (UniProt P08173).
T5 sequence (whole entry): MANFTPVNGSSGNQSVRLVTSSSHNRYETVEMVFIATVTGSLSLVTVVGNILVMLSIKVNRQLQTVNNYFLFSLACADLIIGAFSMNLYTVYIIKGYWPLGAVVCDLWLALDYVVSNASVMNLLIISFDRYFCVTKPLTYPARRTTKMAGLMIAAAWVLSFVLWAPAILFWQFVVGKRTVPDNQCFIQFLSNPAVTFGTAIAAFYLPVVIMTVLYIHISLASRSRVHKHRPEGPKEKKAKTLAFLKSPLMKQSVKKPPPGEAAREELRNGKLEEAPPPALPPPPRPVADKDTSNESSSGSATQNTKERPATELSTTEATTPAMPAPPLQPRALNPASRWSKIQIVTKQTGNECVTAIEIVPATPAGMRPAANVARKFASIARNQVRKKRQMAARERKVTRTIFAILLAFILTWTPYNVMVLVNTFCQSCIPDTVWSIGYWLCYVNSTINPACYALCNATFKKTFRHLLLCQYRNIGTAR

Sodium-dependent noradrenaline transporter (Homo sapiens), sequence (P23975 whole entry): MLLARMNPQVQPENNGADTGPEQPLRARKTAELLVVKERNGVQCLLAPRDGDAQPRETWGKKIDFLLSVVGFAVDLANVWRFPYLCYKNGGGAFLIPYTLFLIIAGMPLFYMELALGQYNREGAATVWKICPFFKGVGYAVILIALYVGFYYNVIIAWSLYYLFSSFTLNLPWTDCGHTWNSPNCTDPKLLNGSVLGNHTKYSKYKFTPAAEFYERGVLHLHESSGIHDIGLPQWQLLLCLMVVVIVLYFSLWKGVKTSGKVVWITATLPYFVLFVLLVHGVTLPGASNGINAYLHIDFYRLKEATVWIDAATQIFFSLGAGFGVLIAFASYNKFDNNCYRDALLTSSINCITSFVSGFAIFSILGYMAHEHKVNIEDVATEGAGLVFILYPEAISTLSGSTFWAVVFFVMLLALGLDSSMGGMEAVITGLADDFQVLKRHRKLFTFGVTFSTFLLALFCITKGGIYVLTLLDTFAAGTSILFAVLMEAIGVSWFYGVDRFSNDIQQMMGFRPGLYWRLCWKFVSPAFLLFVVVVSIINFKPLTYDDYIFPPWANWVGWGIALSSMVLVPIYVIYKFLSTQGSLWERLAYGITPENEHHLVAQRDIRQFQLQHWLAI
Sodium-dependent dopamine transporter (Homo sapiens), sequence (Q01959 whole entry): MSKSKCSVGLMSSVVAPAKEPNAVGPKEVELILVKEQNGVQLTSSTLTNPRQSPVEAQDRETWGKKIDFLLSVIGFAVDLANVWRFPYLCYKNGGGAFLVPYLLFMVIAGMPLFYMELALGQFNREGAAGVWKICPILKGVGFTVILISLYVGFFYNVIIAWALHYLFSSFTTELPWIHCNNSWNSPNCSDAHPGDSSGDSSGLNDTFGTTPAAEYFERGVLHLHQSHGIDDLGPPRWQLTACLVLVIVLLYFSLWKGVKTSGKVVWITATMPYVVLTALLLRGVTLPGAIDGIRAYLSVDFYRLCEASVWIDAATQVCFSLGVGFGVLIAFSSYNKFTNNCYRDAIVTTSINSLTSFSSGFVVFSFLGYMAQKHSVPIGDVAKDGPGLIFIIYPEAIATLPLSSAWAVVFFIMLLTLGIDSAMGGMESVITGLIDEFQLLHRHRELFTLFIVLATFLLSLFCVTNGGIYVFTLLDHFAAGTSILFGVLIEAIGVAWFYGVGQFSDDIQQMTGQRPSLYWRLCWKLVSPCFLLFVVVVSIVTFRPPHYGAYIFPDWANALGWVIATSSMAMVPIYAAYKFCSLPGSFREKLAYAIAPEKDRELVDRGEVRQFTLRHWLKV

Turning to `CS(=O)(=O)NC[C@H]1CC[C@H](Nc2nc3c(s2)CCSc2ccccc2-3)CC1`, the inhibition in [1] is 3.98%; in test [2] it was 7.48%; in [3], -7.8%; in test [4] it was 18.7%; in test [5] it was 2.44%; in test [6] it was 23.8%. Besides, the inhibition in [7] was 35.6%; in test [8] it was 67.2%; in test [9], -4.86%; in test [10], 44%; in test [11], 94.4%; in test [12], 64.7%. The inhibition in [13] is 83%.
On to `Cc1cc([C@@H](C)Nc2cccc(-c3cc(C)c(C(=O)N[C@@H](C)C(=O)O)c(C)c3)c2)ccc1Cl`, for which the inhibition in test [1] is 56.6%; in test [2], 14.9%; in test [3], -4.86%; in test [4], 2.32%; in [6], 24.6%; in [7], 3.66%. Besides, the inhibition is 58.6% in [8]; 7.41% in [14]; 31.4% in test [10]; 11.6% in [12]; 54.5% in test [13].
With `NC(=O)[C@@H]1CCCN1C(=O)[C@H](Cc1c[nH]cn1)NC(=O)[C@@H]1CCC(=O)N1`, the inhibition in test [1] was 40.9%; in [2], 35.9%; in test [3], 0.84%; in test [4] it was 9.67%; in [5], -8.73%; in [6], 14%. Also, the inhibition was 4.54% in test [8]; -2.83% in test [14]; 8.04% in test [9]; 18.4% in test [10]; 5.27% in [12]; 18.6% in [13].
As to `CC1CCN(CC[C@H]2CCCN2S(=O)(=O)c2cccc(O)c2)CC1`, the inhibition is 46.1% in [1]; 30.6% in test [2]; 0.09% in test [3]; 44.4% in test [4]; 51% in test [6]; 0.65% in test [7]. Moreover, the inhibition in test [8] was 61.6%; in test [14], 8.85%; in test [9], 10.6%; in test [10] it was 22.1%; in test [11], -9.8%; in [12], 91.7%. The inhibition in test [13] is 15.4%.
In the case of `CCCCCCCCCCCCC/C=C/[C@@H](O)[C@@H](N)COP(=O)(O)O`, the inhibition in test [2] was 35.1%; in test [3], 9.29%; in test [4], 14.3%; in test [5], 9.46%; in test [6], -1.62%; in test [7], -8.27%. The inhibition in test [8] is 1.79%; in [14] it was -2.5%; in test [9], 7.9%; in [12] it was -4.35%; in test [13], 11.5%.
Take `Cc1cc(C)c(N)c(C#Cc2cccc(F)c2)n1`: the inhibition in test [1] is 9.26%; in [2] it was 65.2%; in test [3], -6.32%; in test [4] it was 9.77%; in test [5], 28.9%; in test [6], 12.9%. Besides, the inhibition in [7] is -6.48%; in [8], 9.35%; in test [9], 8.38%; in [10], -9.97%; in test [11], 19.8%; in [12], -5.73%. Further, the inhibition in [13] was 29.9%.
On to `CC1(C)SSC(C)(C)[C@@H](NC(=O)[C@@H](N)Cc2ccc(O)cc2)C(=O)NCC(=O)N[C@@H](Cc2ccccc2)C(=O)N[C@H]1C(=O)O`, for which the inhibition is 27.3% in [1]; 3.43% in [2]; -1.79% in test [3]; 3.33% in test [4]; 6.52% in [6]; 3.47% in test [7]. For the same compound, the inhibition in test [8] is 0.23%; in test [14], -2.51%; in test [9] it was -8.56%; in test [10], 49%; in test [11], -0.03%; in test [12], -9.01%. The inhibition in test [13] is 24.7%.
For `CC(C)[C@H](CO)Nc1nc(Nc2cccc(Cl)c2)c2ncn(C(C)C)c2n1`, the inhibition is 17.5% in test [1]; 54.1% in [2]; -0.08% in test [3]; -4.77% in test [4]; 13% in [5]; 28.1% in [6]. Moreover, the inhibition in [7] is 5.71%; in test [8], 22.4%; in test [9], 11.2%; in [10], 62.7%; in test [11], -7.15%; in [12] it was 60.9%. Moreover, in test [13], the inhibition is 96.2%.
Take `CCc1nn(CCCN2CCN(c3cccc(Cl)c3)CC2)c(=O)n1CCOc1ccccc1`: the inhibition in [1] is 78.7%; in [2], 85.1%; in test [3] it was 0.27%; in test [4], 94.5%; in test [5] it was 83.9%; in test [6], 103%. In addition, the inhibition in [7] was 42.6%; in test [8], 86.1%; in test [9], 5.27%; in test [10] it was 89.3%; in [11], -0.82%; in [12], 73.3%. Also, the inhibition in test [13] is 79.6%.
